Data reported in PubChem BioAssay (NCI).
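The compound was tested at five concentrations on cells cultured in 96-well plates, with a 48-hour exposure period. TGI marks complete inhibition of growth.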

Legend:
Assay in all cases: growth of human tumour cells (NCI), 48 h
[1] = tested on: NCI-H522 lung
[2] = tested on: UO-31 renal
[3] = tested on: UACC-257 melanoma
[4] = tested on: T-47D breast
[5] = tested on: PC-3 prostate
[6] = tested on: OVCAR-4 ovarian
[7] = tested on: NCI-H23 lung
[8] = tested on: SF-295 CNS
[9] = tested on: U251 CNS
[10] = tested on: ACHN renal
[11] = tested on: MDA-MB-435
[12] = tested on: HL-60(TB) leukemia
[13] = tested on: OVCAR-8 ovarian
[14] = tested on: MDA-MB-231 breast
[15] = tested on: HT29 colon
[16] = tested on: SNB-75 CNS
[17] = tested on: SK-MEL-28 melanoma
[18] = tested on: MCF7 breast
[19] = tested on: HOP-62 NSCLC
[20] = tested on: HCT-15 colon
[21] = tested on: DU-145 prostate
[22] = tested on: RPMI-8226 leukemia
[23] = tested on: NCI-H226 lung
[24] = tested on: TK-10 renal
[25] = tested on: SK-MEL-5 melanoma
[26] = tested on: A549 NSCLC
[27] = tested on: IGROV1 ovarian
[28] = tested on: SR leukemia
[29] = tested on: HS 578T breast
[30] = tested on: HCC-2998 colon
[31] = tested on: M14 melanoma
[32] = tested on: SK-MEL-2 melanoma
[33] = tested on: KM12 colon
[34] = tested on: LOX IMVI melanoma
[35] = tested on: CCRF-CEM leukemia
[36] = tested on: RXF 393 renal
[37] = tested on: SF-268 CNS
[38] = tested on: HCT-116 colon
[39] = tested on: OVCAR-5 ovarian
[40] = tested on: CAKI-1 renal
[41] = tested on: COLO 205 colon
[42] = tested on: HOP-92 NSCLC
[43] = tested on: UACC-62 melanoma
[44] = tested on: SNB-19 CNS
[45] = tested on: OVCAR-3 ovarian
[46] = tested on: SW-620 colon
[47] = tested on: EKVX NSCLC
[48] = tested on: NCI/ADR-RES ovarian
[49] = tested on: A498 renal
[50] = tested on: K-562 leukemia
[51] = tested on: NCI-H460 lung
[52] = tested on: SN12C renal
[53] = tested on: 786-0 renal
[54] = tested on: MDA-N
[55] = tested on: MALME-3M melanoma
[56] = tested on: BT-549 breast

Compound: COc1cc(NCc2ccc3n2-c2ccccc2OC3)cc(OC)c1OC
- TGI [1]: 40.7 µM
- TGI [2]: 60 µM
- TGI [3]: 64.1 µM
- TGI [4]: > 100 µM
- TGI [5]: 87.1 µM
- TGI [6]: 55.5 µM
- TGI [7]: > 100 µM
- TGI [8]: 63.9 µM
- TGI [9]: > 100 µM
- TGI [10]: > 100 µM
- TGI [11]: 33.8 µM
- TGI [12]: 57.2 µM
- TGI [13]: > 100 µM
- TGI [14]: 34.1 µM
- TGI [15]: > 100 µM
- TGI [16]: 62.4 µM
- TGI [17]: > 100 µM
- TGI [18]: 40.6 µM
- TGI [19]: > 100 µM
- TGI [20]: > 100 µM
- TGI [21]: > 100 µM
- TGI [22]: 26.9 µM
- TGI [23]: > 100 µM
- TGI [24]: > 100 µM
- TGI [25]: 32.3 µM
- TGI [26]: > 100 µM
- TGI [27]: 70.5 µM
- TGI [28]: 35.6 µM
- TGI [29]: > 100 µM
- TGI [30]: 51.6 µM
- TGI [31]: > 100 µM
- TGI [32]: 69.2 µM
- TGI [33]: > 100 µM
- TGI [34]: 27.4 µM
- TGI [35]: 44.3 µM
- TGI [36]: 87.5 µM
- TGI [37]: > 100 µM
- TGI [38]: > 100 µM
- TGI [39]: > 100 µM
- TGI [40]: 74.5 µM
- TGI [41]: 25.5 µM
- TGI [42]: 51.3 µM
- TGI [43]: 43.4 µM
- TGI [44]: > 100 µM
- TGI [45]: 75.5 µM
- TGI [46]: > 100 µM
- TGI [47]: 45.1 µM
- TGI [48]: 22.5 µM
- TGI [49]: 33.8 µM
- TGI [50]: 27.6 µM
- TGI [51]: > 100 µM
- TGI [52]: 45.5 µM
- TGI [53]: > 100 µM
- TGI [54]: 72.4 µM
- TGI [55]: 50.9 µM
- TGI [56]: 67.3 µM
